Columns and labels:
endometriosis [1] = assay: Treatment of endometriosis in women; assay type: in vivo, human; conditions: women with endometriosis, 3-6 months, 5-50 mg
pregnant rats = assay: Abortifacient activity in pregnant rats; assay type: in vivo, rat; conditions: s.c.; treatment days 5-7 of pregnancy, autopsy day 9; * SAS, probit procedure
Excerpt: (§1) The guinea pig is considered as relevant model of human gestation and parturition (Elger W, Fähnrich M, Beier S, Quing S S, Chwalisz K (1987). Endometrial and myometrial effects of progesterone antagonists in pregnant guinea pigs. Am J Obstet Gynecol 157: 1065-1074; Elger W, Neef G, Beier S, Fähnrich M, Gründel M, Heermann J, Malmendier A, Laurent D, Puri C P, Singh M M, Hasan S H, Becker H (1992). Evaluation of antifertility activities of antigestagens in animal model. In: Puri C P and Van Look P F A (eds), Current Concepts in Fertility Regulation and Reproduction. Wiley Eastern Limited, New Delhi, pp. 303-328; Elger W, Faehnrich M, Beier S, Qing S S, Chwalisz K (1986). Mechanism of action of progesterone antagonists in pregnant guinea pigs. Contraception 6: 47-62; Elger W, Chwalisz K, Faehnrich M, Hasan S H, Laurent D, Beier S, Ottow E, Neef G, Garfield R E (1990). Studies on labor-conditioning and labor-inducing effects of antiprogesterones in animal model. In: Garfield R E (eds), Norwell, pp. 153-175.) The mechanism of abortion of antiprogestins in this species is the initiation of labor and finally the expulsion of the conceptus. Abortifacient effects in the rat during very early pregnancy reflect inhibitory effects on nidation rather than initiation of uterine contractions. Studies in the rat model lead to “overestimation” of the potential of antiprogestins to terminate pregnancy in humans. Conversely, in the guinea pig model, irrespective of the antiprogestin doses, there were high rates of ongoing pregnancies similar to the situation in humans (Elger et al., Current Concepts in Fertility Regulation and Reproduction cited above). Furthermore, in both humans and guinea pigs, there is a strong synergism between antiprogestins and prostaglandins with respect the induction of labor (see the articles cited above and Elger W, Beier S (1983). Prostaglandine and Antigestagene für den Schwangerschaftsabbruch (Prostaglandins and antigestagens for pregnancy termination). German Patent DE 3337450 12; Van Look P, Bygdeman M (1989). Antiprogestational steroids: a new dimension in human fertility regulation. Oxford reviews of reproductive medicine 11: 2-60).

pregnant guinea pigs = assay: Abortifacient / labor inducing activity in pregnant guinea pigs; assay type: in vivo, guinea pig; conditions: for abortifacient activity ED50, guinea pig: s.c., treatment day 43-44 of pregnancy, autopsy day 50; for ranking of abortifacient activity: treated on days 43 and 44 of pregnancy, observed until day 50
Experimental: In the guinea pig model which allows a good prediction of the effects in humans with respect to the abortifacient activity (Elger W, Beier S., Chwalisz K, Fähnrich M, Hasan S H, Henderson D, Neef G, Rohde R (1986): Studies on the mechanism of action of progesterone antagonists. J Steroid Biochem 25: 835-845) the mesoprogestins J 867, J 912, J 956, J 1042 lead up to 100 mg/kg/day to a maximal abortion rate of 20%.
as §1
Pregnant guinea pigs were treated on days 43 and 44 of pregnancy and observed until day 50 of gestation. For the effects of various treatments see table 1 and FIG. 2. It is typical for this model that expulsions occur with a delay of several days after treatment. It can be seen that Mesoprogestins have a much reduced abortifacient activity compared to RU486. […] The differences with respect to abortifacient activity seem qualitative ones. It is not possible to overcome the low abortifacient activity of a Mesoprogestin by the use of a higher dose.
FIG. 2 is graphs showing data on the assessment on cumulative rate of abortion until day 50 in guinea pigs treated on days 43 and 44 of pregnancy.

cyclic guinea pigs = conditions: cited from earlier work
endometriosis [2] = assay: Sequential treatment of endometriosis with an LHRH agonist and J867; assay type: in vivo, human
Experimental: Women with endometriosis are treated for 2-3 months with an LHRH agonist such as Lupron. After the cessation of LHRH-agonist therapy women are treated for the next 3-6 months with J 867 in order to avoid osteoprorosis induced by prolonged treatment with LHRH agonist. During treatment with 5-50 mg J 867 the therapeutic effects of the LHRH-agonist are maintained.

[3] = as described in DE 43 32 283 / DE 43 32 284; cited from earlier work
uterine fibroids = assay: Treatment of uterine fibroids (Example 5); assay type: in vivo, human; conditions: 3-6 months, 5-50 mg
[4] = as described in DE 43 32 283 / DE 43 32 284; cited from earlier work; remark: listed apart in the source

Structure (SMILES)	pelvic pain during treatment (endometriosis [1])	abortifacient activity ED50, rat (pregnant rats)	abortifacient activity ED50, guinea pig (pregnant guinea pigs)	ranking of abortifacient activity (pregnant guinea pigs)	uterine weights (cyclic guinea pigs)	therapeutic effects of the LHRH-agonist during following treatment (endometriosis [2]; 5-50 mg for 3-6 months after 2-3 months LHRH agonist)	estrogen deficiency (endometriosis [2]; women with endometriosis)	antiprogestagenic activity [3]	pelvic pain during treatment (uterine fibroids)	antiglucocorticoid activity compared to RU 486 [4]
COC[C@]1(OC)CC[C@H]2[C@@H]3CCC4=CC(=O)CCC4=C3[C@@H](c3ccc(/C=N/O)cc3)C[C@@]21C [J867, 4-[17β-Methoxy-17α-(methoxymethyl)-3-oxoestra-4,9-dien-11β-yl]benzaldehyd-(1E)-oxim]	reduction of pelvic pain was observed	0.65* mg/animal/day	>100 mg/animal/day	RU486>J956>J867, J912>J1042	reduced uterine weights	maintained	does not produce estrogen deficiency	strong	reduction of pelvic pain was observed	markedly reduced
CCNC(=O)O/N=C/c1ccc([C@H]2C[C@@]3(C)[C@@H](CC[C@]3(COC)OC)[C@@H]3CCC4=CC(=O)CCC4=C32)cc1 [J956, 4-[17β-Methoxy-17α-(methoxymethyl)-3-oxoestra-4,9-dien-11β-yl]benzaldehyd-(1E)-[O-(ethylamino)carbonyl]oxim]		0.64* mg/animal/day	20 mg/animal/day	RU486>J956>J867, J912>J1042						
CCSC(=O)O/N=C/c1ccc([C@H]2C[C@@]3(C)[C@@H](CC[C@]3(COC)OC)[C@@H]3CCC4=CC(=O)CCC4=C32)cc1 [J1042, 4-[17β-Methoxy-17α-(methoxymethyl)-3-oxoestra-4,9-dien-11β-yl]benzaldehyd-(1E)-[O-(ethylthio)carbonyl]oxim]		>10 mg/animal/day	>>100 mg/animal/day	RU486>J956>J867, J912>J1042						

Source: patent publication US8193252B1, “Mesoprogestins (progesterone receptor modulators) for the treatment and prevention of benign hormone dependent gynecological disorders” (Bayer Pharma AG, priority 1999, dated 2012)
